# Key:
# Format in all cases: physicochemical
# [1] = Comparative photostability of thin film under UV-B irradiation (Q-UV Accelerated Weathering Tester); settings: UV-B (1 MED/h), thin film with 0.1% PVP-VA on glass plate, Example 3 1%, Incroquat 283 1%, HP610 0.1%
# Protocol: (§1) The photostability of compounds of the present invention as well as existing commercial cationic sunscreens is tested according to the procedure described below: • Photostability: Comparative Photostability of Example 3, Incroquat® 283 and Escalol® HP610
# (§2) Three products [Example 3 (1%), Incroquat 283 (1%) and HP610 (0.1%)] were tested for their photostability by dissolving separately in water or ethanol-water solution containing 0.1% Poly(vinylpyrrolidone-vinyl acetate) copolymer (PVP-VA S630 from ISP). Air drying on a glass plate for one hour gave a thin film, which were irradiated under UV A (2 MED/h) and UV B (1 MED/h) light separately over an 8 h period in a Q-UV Accelerated Weathering Tester. Photodegradation was calculated from the decrease in the maximum absorption of the respective products. The results are illustrated in the Tables 1 and 2.
# [2] = Comparative photostability of thin film under UV-A irradiation (Q-UV Accelerated Weathering Tester); settings: UV-A (2 MED/h), thin film with 0.1% PVP-VA on glass plate, Example 3 1%, Incroquat 283 1%, HP610 0.1%
# Protocol: as §1, §2
# Solubility = settings: for solubility in water: water / aqueous solution
# UV absorption maximum = settings: EtOH:water—70%:30%
# Protocol: The mass was degassed for one hour at 90-95 deg. C. under vacuum. The yield obtained is about 85%. […] A 50% solution in water was prepared for ease of handling.
Molecule,% Product Retained After 1 hr [1],% Product Retained After 2 hr [1],% Product Retained After Initial [1],% Product Retained After 2 hr [2],% Product Retained After 4 hr [2],% Product Retained After 6 hr [2],% Product Retained After Initial [2],maximal concentration reached in solution (Solubility; aqueous-ethanolic solution (30:70%)),solubility in water (Solubility),λmax (UV absorption maximum)
CCCCCCCCCCCC[N+](C)(C)CCCNC(=O)c1ccc(N(C)C)cc1.Cc1ccc(S(=O)(=O)[O-])cc1 [Escalol HP ®-610],33%,28%,100%,50%,40%,30%,100%,0.25%,very poor solubility,
"Bis-N-[3(N,N-dimethylamino)propyl]-3,4,5-trimethoxy benzylidene malonamide bis ethylsulfate [Example 3]",96%,93%,100%,98%,97%,94%,100%,,soluble in water,301 nm
